Where two headings read alike, the source gives them in different places.
Experiments:
Format in all cases: in vivo
Phytophthora infestans = experiment: whole plant or invertebrate; details: for pest or weed control at 0.2 ppm: application rate 0.2 ppm a.i.
Sphaerotheca fuliginea = experiment: Sphaerotheca test (cucumbers)/preventive
Description: (§1) A synergistic effect of fungicides is always present when the fungicidal activity of the active compound combinations exceeds the total of the activities of the active compounds when applied individually. The expected activity for a given combination of two active compounds can be calculated as follows (cf. Colby, S. R., “Calculating Synergistic and Antagonistic Responses of Herbicide Combinations”, Weeds 1967, 15, 20-22):
(§2) If • X is the efficacy when active compound A is applied at an application rate of m ppm (or g/ha), • Y is the efficacy when active compound B is applied at an application rate of n ppm (or g/ha), • E is the efficacy when the active compounds A and B are applied at application rates of m and n ppm (or g/ha), respectively, and
Sphaerotheca Test (Cucumbers)/Preventive • Solvent: 24.5 parts by weight of acetone • 24.5 parts by weight of dimethylacetamide • Emulsifier: 1 part by weight of alkylaryl polyglycol ether
(§3) To produce a suitable preparation of active compound, 1 part by weight of active compound is mixed with the stated amounts of solvent and emulsifier, and the concentrate is diluted with water to the desired concentration.
(§4) To test for preventive activity, young plants are sprayed with the preparation of active compound at the stated rate of application. After the spray coating has dried on, the plants are inoculated with an aqueous spore suspension of Sphaerotheca fuliginea. The plants are then placed in a greenhouse at approximately 23° C. and a relative atmospheric humidity of approximately 70%.
The test is evaluated 7 days after the inoculation. 0% means an efficacy which corresponds to that of the untreated control, while an efficacy of 100% means that no disease is observed.

Venturia inaequalis = experiment: Venturia test (apples)/preventive; details: for pest or weed control at 2 ppm: application rate 2 ppm a.i.; for pest or weed control at 4 ppm: application rate 4 ppm a.i.
Description: as §1, §2
Venturia test (apples)/preventive • Solvent: 24.5 parts by weight of acetone • 24.5 parts by weight of dimethylacetamide • Emulsifier: 1 part by weight of alkylaryl polyglycol ether
as §3
To test for preventive activity, young plants are sprayed with the preparation of active compound at the stated rate of application. After the spray coating has dried on, the plants are inoculated with an aqueous conidia suspension of the causal agent of apple scab (Venturia inaequalis) and then remain for 1 day in an incubation cabinet at approximately 20° C. and a relative atmospheric humidity of 100%.
The plants are then placed in a greenhouse at approximately 21° C. and a relative atmospheric humidity of approximately 90%.
The test is evaluated 10 days after the inoculation. 0% means an efficacy which corresponds to that of the untreated control, while an efficacy of 100% means that no disease is observed.

Alternaria solani = experiment: Alternaria test (tomatoes)/preventive; details: for pest or weed control at 20 ppm: application rate 20 ppm a.i.
Description: as §1, §2
Alternaria Test (Tomatoes)/Preventive • Solvent: 24.5 parts by weight of acetone • 24.5 parts by weight of dimethylacetamide • Emulsifier: 1 part by weight of alkylaryl polyglycol ether
as §3
as §4, with “Alternaria solani.” for “Sphaerotheca fuliginea.”, “an incubation cabinet” for “a greenhouse”, “20°” for “23°”, “100%.” for “approximately 70%.”
The test is evaluated 3 days after the inoculation. 0% means an efficacy which corresponds to that of the untreated control while an efficacy of 100% means that no disease is observed.

[1] = Table 5, application rate 2.5 ppm a.i.
[2] = Table 7, application rate 1 ppm a.i.
[3] = Venturia inaequalis, 240 h, Table 10, read-out: Efficacy in % found
[4] = Table 7, application rate 4 ppm a.i.
[5] = Phytophthora infestans, 72 h, read-out: Efficacy in % found, Table 5, application rate 2.5 ppm a.i.
[6] = Table 3, application rate 1.25 ppm a.i.
[7] = Table 3, application rate 2.5 ppm a.i.
[8] = Phytophthora infestans, 72 h, read-out: Efficacy in % found, Table 4
[9] = Venturia inaequalis, 240 h, Table 11, application rate 0.5 ppm a.i., read-out: Efficacy in % found
[10] = Alternaria solani, 72 h, Table 2, read-out: Efficacy in % found
[11] = Table 6, application rate 2.5 ppm a.i.
[12] = Table 9, application rate 50 ppm a.i.
[13] = Phytophthora infestans, 72 h, read-out: Efficacy in % found, Table 3, application rate 2.5 ppm a.i.
[14] = Table 3, application rate 5 ppm a.i.

In the case of Cn1cc(C(=O)Nc2cccc3c2[C@@H]2CC[C@H]3C2=C(Cl)Cl)c(C(F)F)n1 (racemic) [2.29, benzovindiflupyr], the “Efficacy in % found” value (Phytophthora infestans; [1]) is reported as 0% and the “Efficacy in % found” value (Sphaerotheca fuliginea; Table 7, application rate 0.5 ppm a.i.) is reported as 0%.
OC(Cc1ccccc1Cl)(Cn1nc[nH]c1=S)C1(Cl)CC1 (stereo not shown) [1.41, prothioconazole] was tested, and the “Efficacy in % found” value (Sphaerotheca fuliginea; Table 8, application rate 2 ppm a.i.) was 19%.
CC(C)(C)C(O)(CCc1ccc(Cl)cc1)Cn1cncn1 (stereo not shown) [1.47, tebuconazole] was tested, and the pest or weed control at 2 ppm (Venturia inaequalis; Venturia inaequalis, 240 h, Table 11, read-out: Efficacy in % found) was 11%.
Cn1cc(C(=O)Nc2ccc(F)cc2-c2ccc(Cl)c(Cl)c2)c(C(F)F)n1 [2.1, bixafen] was tested, and the “Efficacy in % found” value (Venturia inaequalis; Table 10, application rate 1 ppm a.i.) was 84% and the “Efficacy in % found” value (Sphaerotheca fuliginea; [2]) was 10%.
In the case of O=C(Nc1ccccc1-c1ccc(Cl)cc1)c1cccnc1Cl [2.2, boscalid], the pest or weed control at 20 ppm (Venturia inaequalis; Venturia inaequalis, 240 h, Table 11, application rate 20 ppm a.i., read-out: Efficacy in % found) is reported as 85%, the “Efficacy in % found” value (Sphaerotheca fuliginea; Table 8, application rate 20 ppm a.i.) is reported as 62% and the “Efficacy in % found” value (Sphaerotheca fuliginea; Table 8, application rate 40 ppm a.i.) is reported as 86%.
For O=C(NCCc1ncc(C(F)(F)F)cc1Cl)c1ccccc1C(F)(F)F [2.6, fluopyram], the pest or weed control at 4 ppm (Venturia inaequalis; [3]) was 21%, the pest or weed control at 1 ppm (Alternaria solani; Alternaria solani, 72 h, Table 1, application rate 1 ppm a.i., read-out: Efficacy in % found) was 48% and the “Efficacy in % found” value (Sphaerotheca fuliginea; [4]) was 19%.
Cn1cc(C(=O)Nc2ccccc2-c2cc(F)c(F)c(F)c2)c(C(F)F)n1 [2.8, fluxapyroxad] was tested, and the “Efficacy in % found” value (Venturia inaequalis; Table 10, application rate 0.5 ppm a.i.) was 25%, the “Efficacy in % found” value (Phytophthora infestans; [1]) was 0% and the “Efficacy in % found” value (Sphaerotheca fuliginea; [2]) was 38%.
In the case of CC(C)C1C2CCC1c1c(NC(=O)c3cn(C)nc3C(F)F)cccc12 (stereo not shown) [2.12, isopyrazam], the “Efficacy in % found” value (Phytophthora infestans; [1]) is reported as 0%, the “Efficacy in % found” value (Sphaerotheca fuliginea; [2]) is reported as 19% and the “Efficacy in % found” value (Sphaerotheca fuliginea; Table 7, application rate 2 ppm a.i.) is reported as 57%.
Work on CC(C)CC(C)c1sccc1NC(=O)c1cn(C)nc1C(F)(F)F (stereo not shown) [2.21, penthiopyrad] yielded a pest or weed control at 2 ppm (Venturia inaequalis; [3]) of 8%, a pest or weed control at 2.5 ppm (Phytophthora infestans; [5]) of 0% and a pest or weed control at 0.5 ppm (Alternaria solani; Alternaria solani, 72 h, Table 1, application rate 0.5 ppm a.i., read-out: Efficacy in % found) of 39%.
Work on COC(c1ccc(Cl)cc1Cl)C(C)NC(=O)c1cn(C)nc1C(F)F (stereo not shown) [2.27, N-[1-(2,4-dichlorophenyl)-1-methoxypropan-2-yl]-3-(difluoromethyl)-1-methyl-1H-pyrazole-4-carboxamide] yielded a pest or weed control at 2 ppm (Venturia inaequalis; [3]) of 31%, a pest or weed control at 4 ppm (Venturia inaequalis; [3]) of 93% and a pest or weed control at 2.5 ppm (Phytophthora infestans; [5]) of 0%. For the same compound, the pest or weed control at 10 ppm (Phytophthora infestans; Phytophthora infestans, 72 h, read-out: Efficacy in % found, Table 5, application rate 10 ppm a.i.) was 8% and the “Efficacy in % found” value (Sphaerotheca fuliginea; [4]) was 81%.
For CCCCCCCCc1c(CC)nc2ncnn2c1N [3.1, ametoctradin], the “Efficacy in % found” value (Phytophthora infestans; [6]) was 15% and the “Efficacy in % found” value (Phytophthora infestans; [7]) was 22%.
For Cc1c(Br)c2ccc(F)cc2n1S(=O)(=O)c1ncn(S(=O)(=O)N(C)C)n1 [3.2, amisulbrom], the “Efficacy in % found” value (Phytophthora infestans; Table 4, application rate 1 ppm a.i.) was 19%.
With CO/C=C(/C(=O)OC)c1ccccc1Oc1cc(Oc2ccccc2C#N)ncn1 [3.3, azoxystrobin] the “Efficacy in % found” value (Venturia inaequalis; Table 11, application rate 0.25 ppm a.i.) was 38%.
Cc1ccc(-c2c(Cl)nc(C#N)n2S(=O)(=O)N(C)C)cc1 [3.4, cyazofamid] gave a pest or weed control at 0.2 ppm (Phytophthora infestans; [8]) of 8%.
Compound CSC1=N[C@@](C)(c2ccccc2)C(=O)N1Nc1ccccc1 [3.10, fenamidone] has a pest or weed control at 0.5 ppm (Phytophthora infestans; Phytophthora infestans, 72 h, read-out: Efficacy in % found, Table 4, application rate 0.5 ppm a.i.) of 3%.
For CO/N=C(/C1=NOCCO1)c1ccccc1Oc1ncnc(Oc2ccccc2Cl)c1F [3.12, fluoxastrobin], the pest or weed control at 0.5 ppm (Venturia inaequalis; [9]) was 44%.
With COC(=O)N(OC)c1ccccc1COc1ccn(-c2ccc(Cl)cc2)n1 [3.17, pyraclostrobin] the pest or weed control at 0.5 ppm (Venturia inaequalis; [9]) was 19%.
Work on CON=C(C(=O)OC)c1ccccc1CON=C(C)c1cccc(C(F)(F)F)c1 [3.22, trifloxystrobin] yielded a pest or weed control at 0.5 ppm (Venturia inaequalis; [9]) of 77%.
For N#Cc1c(Cl)c(Cl)c(Cl)c(C#N)c1Cl [5.4, chlorothalonil], the pest or weed control at 20 ppm (Venturia inaequalis; Venturia inaequalis, 240 h, Table 12, application rate 20 ppm a.i., read-out: Efficacy in % found) was 14% and the pest or weed control at 20 ppm (Alternaria solani; [10]) was 5%.
In the case of [Cu+2].[OH-].[OH-] [5.5, copper hydroxide], the “Efficacy in % found” value (Venturia inaequalis; Table 13, application rate 20 ppm a.i.) is reported as 25%, the “Efficacy in % found” value (Phytophthora infestans; [11]) is reported as 18% and the “Efficacy in % found” value (Sphaerotheca fuliginea; Table 9, application rate 10 ppm a.i.) is reported as 29%.
[Cl-].[Cu+2].[Cu+2].[OH-].[OH-].[OH-] [5.8, copper oxychloride] was tested, and the “Efficacy in % found” value (Venturia inaequalis; Table 13, application rate 50 ppm a.i.) was 8%, the “Efficacy in % found” value (Phytophthora infestans; [11]) was 0% and the “Efficacy in % found” value (Sphaerotheca fuliginea; [12]) was 10%.
O=C1c2ccccc2C(=O)N1SC(Cl)(Cl)Cl [5.16, folpet] gave a pest or weed control at 10 ppm (Alternaria solani; Alternaria solani, 72 h, Table 2, application rate 10 ppm a.i., read-out: Efficacy in % found) of 0%.
In the case of Cc1cc(C)nc(Nc2ccccc2)n1 [7.7, pyrimethanil], the pest or weed control at 20 ppm (Alternaria solani; [10]) is reported as 32%.
In the case of CC(C)[C@H](NC(=O)O)C(=O)N[C@H](C)c1nc2ccc(F)cc2s1 [9.1, benthiavalicarb], the “Efficacy in % found” value (Phytophthora infestans; Table 4, application rate 0.5 ppm a.i.) is reported as 52%.
In the case of COc1ccc(C(=CC(=O)N2CCOCC2)c2ccc(Cl)cc2)cc1OC [9.2, dimethomorph], the pest or weed control at 1 ppm (Phytophthora infestans; Phytophthora infestans, 72 h, read-out: Efficacy in % found, Table 4, application rate 1 ppm a.i.) is reported as 20%.
With Cc1ccc(C(C)NC(=O)[C@@H](NC(=O)OC(C)C)C(C)C)cc1 (stereo partly shown) [9.4, iprovalicarb] the “Efficacy in % found” value (Phytophthora infestans; Table 4, application rate 2 ppm a.i.) was 9%.
O=[N+]([O-])c1cc(C(F)(F)F)c(Cl)c([N+](=O)[O-])c1Nc1ncc(C(F)(F)F)cc1Cl [14.4, fluazinam] was tested, and the pest or weed control at 2.5 ppm (Phytophthora infestans; [13]) was 0%.
CCNC(=O)NC(=O)/C(C#N)=N/OC [15.9, cymoxanil] showed a pest or weed control at 2.5 ppm (Phytophthora infestans; [13]) of 0% and a pest or weed control at 5 ppm (Phytophthora infestans; Phytophthora infestans, 72 h, read-out: Efficacy in % found, Table 3, application rate 5 ppm a.i.) of 0%.
With OP(O)O [15.41, phosphorous acid] the “Efficacy in % found” value (Phytophthora infestans; [7]) was 0% and the “Efficacy in % found” value (Phytophthora infestans; [14]) was 13%.
With Cn1c(=O)c2sc3c(=O)n(C)c(=O)c3sc2c1=O [15.60, 2,6-dimethyl-1H,5H-[1,4]dithiino[2,3-c:5,6-c′]dipyrrole-1,3,5,7(2H,6H)-tetrone] the pest or weed control at 50 ppm (Venturia inaequalis; Venturia inaequalis, 240 h, Table 12, application rate 50 ppm a.i., read-out: Efficacy in % found) was 24% and the pest or weed control at 50 ppm (Alternaria solani; Alternaria solani, 72 h, Table 2, application rate 50 ppm a.i., read-out: Efficacy in % found) was 32%.
In the case of CCCCCOC(=O)Nc1cccc(CON=C(c2ccccc2)c2nnnn2C)n1 [15.90, pentyl {6-[({[(1-methyl-1H-tetrazol-5-yl)(phenyl)methylidene]amino}oxy)methyl]pyridin-2-yl}carbamate], the pest or weed control at 0.2 ppm (Phytophthora infestans; [8]) is reported as 10%.
For fosetyl-aluminium [15.24], the “Efficacy in % found” value (Phytophthora infestans; [7]) was 0% and the “Efficacy in % found” value (Phytophthora infestans; [14]) was 0%.
metalaxyl-M (mefenoxam) [12.10] was tested, and the “Efficacy in % found” value (Phytophthora infestans; [6]) was 10% and the “Efficacy in % found” value (Phytophthora infestans; [7]) was 36%.
For metiram [5.25], the “Efficacy in % found” value (Venturia inaequalis; Table 13, application rate 100 ppm a.i.) was 55%, the “Efficacy in % found” value (Phytophthora infestans; [11]) was 15% and the “Efficacy in % found” value (Sphaerotheca fuliginea; [12]) was 29%.
In the case of propamocarb hydrochloride [10.10], the “Efficacy in % found” value (Phytophthora infestans; [11]) is reported as 0%, the “Efficacy in % found” value (Sphaerotheca fuliginea; Table 9, application rate 200 ppm a.i.) is reported as 0% and the “Efficacy in % found” value (Sphaerotheca fuliginea; Table 9, application rate 400 ppm a.i.) is reported as 0%.
propineb [5.29] was tested, and the “Efficacy in % found” value (Alternaria solani; Table 2, application rate 5 ppm a.i.) was 0%.

Reference: US12102087B2 (priority 2012, dated 2024)
